# Laboratory results published in PMC9271048, “Probing strigolactone perception mechanisms with rationally designed small-molecule agonists stimulating germination of root parasitic weeds” (Nature Communications, 2022).
# Entries after “also recorded” stand apart in the source; their conditions may differ.
# Assays:
# [1] = tested on: Arabidopsis thaliana (Col-0); experiment: Arabidopsis root hair assay; type: in vivo; settings: Col-0 seedlings on 1/2 MS medium, 1 μM; Supplementary Fig. 15; in µm (unit assumed)
# Experimental: (§1) For Arabidopsis root hair assay, Arabidopsis thaliana (Col-0) seeds were surface sterilized by using 1% NaClO solution for 60 s and 75% ethanol solution for 60 s, and then washed by sterilized distilled water five times. The sterilized seeds were sowed on 1/2 MS media (2.202 g/L Murashige and Skoog basal salts, 0.5 g/L MES, 10 g/L sucrose, and 10 g/L agar, pH 5.7) which contained indicated concentrations of compounds. 0.1% DMSO was used as a negative control. The plates were placed 4 days at 4 °C and then placed vertically under fluorescent white light (100–150 μmol m^−2 s^−1) with 16 h light and 8 h dark at 20 ± 1 °C for 15 days[17],[55]. The root hairs were imaged by OLYMPUS (U-HGLGPS), and the lengths were analyzed by ImageJ. The experiments were repeated three times. For Arabidopsis shoot branching assay: Col-0 and max4-1 seeds were used in this experiment. Seeds surface sterilization was sterilized as described above. The Arabidopsis seedlings were placed on top of the cut black microcentrifuge tubes filled with 1/2 MS. The tubes were placed 4 days at 4 °C and then moved to fluorescent white light (100–150 μmol m^−2 s^−1) with 16 h light and 8 h dark at 20 ± 1 °C for 7 days[26]. The germinated seedlings were grown on hydroponic culture solutions (containing indicated concentrations of 4a, (R)- and (S)-4a), with the solution containing 0.01% DMSO as the negative control. The solutions were renewed every week. After 4 weeks, the numbers of rosette axillaries were analyzed.
# type Arabidopsis. a, Representative primary root segments of Col-0 seedlings growing on 1/2 MS
# medium with or without 1 μM tested chemicals. Scale bar, […]. b, The average length of root
# hair is presented as means ± SD (n = 3 biologically independent experiments).
# (1 picture or pasted object on this page, not shown here)
# [2] = tested on: ShHTL7-SMAX1 interaction; experiment: Yeast two-hybrid assay ShHTL7-SMAX1; type: cell-based, Striga hermonthica
# Experimental: (§2) To construct plasmids for yeast two-hybrid assays, the CDS of ShHTL7 and AtD14 were cloned into yeast expression vector pBrigde to generate BD-ShHTL7 and BD-AtD14, and the CDS of ShMAX2, AtMAX2, SMAX1 were cloned into pGADT7 to make Gal4 DNA activation domain (AD) constructs, respectively. Primers used for yeast expression vector construction are listed in Supplementary Table 6. Yeast two-hybrid assays were performed using the Yeastmaker Yeast Transformation System 2 (Clontech). In brief, Yeast AH109 cells were co-transformed with specific bait and prey constructs and coated on selective growth medium SD/-Leu-Trp for 3 days at 30 °C, pick the positive constructs into liquid selective growth medium SD/-Leu-Trp shaking for 36 h at 30 °C. Washed yeast cells three times and diluted, made sure OD600 reached 2.5, then serial 10-fold dilutions of yeast cultures were spotted onto selective growth mediums that were supplemented with different concentrations of rac-GR24 and tested molecules, respectively. All yeast transformants were grown on a selective growth medium at 30 °C for 3 days.
# [3] = tested on: ShHTL7-ShMAX2 interaction; experiment: Yeast two-hybrid assay ShHTL7-ShMAX2; type: cell-based, Striga hermonthica
# Experimental: as §2
# [4] = tested on: max4-1; experiment: Arabidopsis shoot branching assay; type: in vivo, Arabidopsis thaliana; settings: max4-1, 1 μM; Fig. 4c source data
# Experimental: as §1
# [5] = target: ShHTL7 (Striga hermonthica, UniProt A0A0M3PNA2); experiment: Mass spectrometric analysis of covalent modification of ShHTL7; type: biochemical; settings: for mass increase of compound-treated ShHTL7 protein: Q-TOF MS of full-length protein, modification on His246; for covalent modification of ShHTL7: MS of compound-treated ShHTL7
# ShHTL7, sequence (A0A0M3PNA2 entry or part of it): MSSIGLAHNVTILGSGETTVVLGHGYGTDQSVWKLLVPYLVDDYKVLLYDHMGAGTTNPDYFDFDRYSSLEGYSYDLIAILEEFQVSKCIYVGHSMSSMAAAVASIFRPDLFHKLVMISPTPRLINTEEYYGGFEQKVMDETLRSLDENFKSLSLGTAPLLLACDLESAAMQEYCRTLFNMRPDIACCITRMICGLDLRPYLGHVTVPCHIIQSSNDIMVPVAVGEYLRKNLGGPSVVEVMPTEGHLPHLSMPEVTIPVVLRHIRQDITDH
# Source text: This was consistent with the hydrolysis of natural and synthetic SLs, in which, the (2′R)-isomers are more prone to hydrolysis by ShHTL7 than the (2′S)-isomers[26],[40]. […] Based on the above observations, we inferred that (S)-4a may have similar biochemical properties as 2′R-configured SLs. We then examined whether (S)-4a binding, just as for rac-GR24, would result in a covalently linked molecule in ShHTL7 by using Q-TOF mass spectrometry (SYNAPT-G2-Si, Waters company) analysis. […] For (R)-4a and 4g, a weak peak (increase of 95 Da or 94 Da) of similar modification was found, respectively (Fig. 3). A similar modification was not observed in 4h and 4i treated samples (Supplementary Fig. 12b, c). To furtherly identify the specific modification of the increased mass of 94 Da or 95 Da, we incubated (R)-4a, (S)-4a, and 4g with ShHTL7, followed by gel digestion and MS/MS analysis. […] No covalently linked molecule presence was identified in 4h treated ShHTL7 (Supplementary Fig. 12b). We assume that this is due to the fact that the N-CH3 D-lactam modified His246 is more reactive, resulting in quick decomposition of the intermediate.
# For LC-MS analysis: a 200 μL reaction solution (100 mM HEPES, 150 mM NaCl, pH 7.0) containing 10, or 400 μM of tested samples 4a, (R)- and (S)-4a, and 4g-i, and 100 μg of recombinant ShHTL7 or its mutants was incubated at 25 °C for 30 min. Subsequently, the solution was filtered and analyzed by a nanoACQUITY UPLC system, which was directly interfaced with an SYNAPT-G2-Si mass spectrometer produced by Waters Company. For LC-MS/MS analysis, the above chemicals treated ShHTL7 reaction solution was subjected to the SDS-PAGE analysis. The corresponding protein band around 30 KDa was excised, respectively, then digested with trypsin (Promega) in NH4HCO3 solution (50 mM) at 37 °C for 24 h[23],[26]–[28]. The covalent modification of C5H5O2/C6H6O on the peptide was analyzed by a Thermo-Dionex Ultimate 3000 HPLC system, which was directly interfaced with a Thermo Orbitrap Fusion Lumos mass spectrometer. MS-MS spectra are generated by pLabel software[53],[54].
Compound,"average length of root hair, source data average [1]","No. of axillary shoots, source data average [4]",induction of ShHTL7-SMAX1 interaction (Y2H) ([2]; 200 μM),mass increase of compound-treated ShHTL7 protein [5],further results
"CC1=C[C@H](O/C=C2/C(=O)O[C@@H]3c4ccccc4C[C@H]23)OC1=O (racemic) [rac-GR24, reference compound]",474.342,–,–,–,–
CC1=CC(OC(=O)N2CCN(C(=O)COc3ccc(Br)cc3C)CC2)OC1=O (centres unmarked) [4a],163.912,3.5,–,–,induction of ShHTL7-SMAX1 interaction (Y2H) ([2]; 1 μM): strongly induce the interaction; induction of ShHTL7-ShMAX2 interaction (Y2H) ([3]; 0.01 μM (10 nM)): could still promote the ShHTL7-ShMAX2 interaction; induction of ShHTL7-ShMAX2 interaction (Y2H) ([3]; 1 μM): strongly induce the interaction
CC1=CC(OC(=O)N2CCN(C(=O)COc3ccc(Br)cc3C)CC2)CC1=O (centres unmarked) [4g],–,–,only weak ligand-induced interactions,94 Da,–
CC1=CC(OC(=O)N2CCN(C(=O)COc3ccc(Br)cc3C)CC2)N(C)C1=O (centres unmarked) [4h],–,–,–,–,covalent modification of ShHTL7 [5]: not observed
CC1=CC(CC(=O)N2CCN(C(=O)COc3ccc(Br)cc3C)CC2)OC1=O (centres unmarked) [4i],–,–,almost no ligand-induced interactions were observed,–,covalent modification of ShHTL7 [5]: not observed; induction of ShHTL7-ShMAX2 interaction (Y2H) ([3]; 200 μM): almost no ligand-induced interactions were observed
CC1=C[C@@H](OC(=O)N2CCN(C(=O)COc3ccc(Br)cc3C)CC2)OC1=O [(R)-4a],172.727,3.667,did induce the interaction,95 Da,induction of ShHTL7-SMAX1 interaction (Y2H) ([2]; 1 and 5 μM): no ShHTL7-SMAX1 or ShHTL7-AtMAX2 interactions were detected
CC1=C[C@H](OC(=O)N2CCN(C(=O)COc3ccc(Br)cc3C)CC2)OC1=O [(S)-4a],211.816,2.6,–,94 Da,induction of ShHTL7-SMAX1 interaction (Y2H) ([2]; 1 μM): strongly induce the interaction; induction of ShHTL7-ShMAX2 interaction (Y2H) ([3]; 0.01 μM (10 nM)): could still promote the ShHTL7-ShMAX2 interaction; also recorded: promoted ShHTL7-ShMAX2 interaction; induction of ShHTL7-ShMAX2 interaction (Y2H) ([3]; 1 μM): strongly induce the interaction
